The test deals with P388 leukemia ip, CD2F1 mice, survival T/C. As to the kind of experiment: NCI In Vivo Anticancer Drug Screen. Data for tumor model P388 Leukemia (intraperitoneal) in CD2F1 (CDF1) mice. The note with it: endpoint: median survival time, higher = longer survival. The essentials: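 Mice carrying the transplanted tumor received test compound or vehicle. Survival was recorded in each group, and the value is the treated-group measurement divided by that of the vehicle-treated control group.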

Setting [1] is: dose: 100.0 mg/kg/injection, schedule: Q04DX002 (ip), vehicle: suspension in saline.
The mark [2] stands for this setting: dose: 200.0 mg/kg/injection, schedule: Q04DX002 (ip), vehicle: suspension in saline.
Where [3] appears, read: dose: 100.0 mg/kg/injection, schedule: Q01DX009 (ip), vehicle: saline with Tween-80.
The mark [4] stands for this setting: dose: 400.0 mg/kg/injection, schedule: Q01DX009 (ip), vehicle: saline with Tween-80.
[5] abbreviates: dose: 50.0 mg/kg/injection, schedule: Q01DX009 (ip), vehicle: Klucel (hydroxypropylcellulose) (HPC).
[6] abbreviates: dose: 100.0 mg/kg/injection, schedule: Q01DX009 (ip), vehicle: Klucel (hydroxypropylcellulose) (HPC).
The mark [7] stands for this setting: dose: 200.0 mg/kg/injection, schedule: Q01DX009 (ip), vehicle: Klucel (hydroxypropylcellulose) (HPC).
Setting [8] is: dose: 25.0 mg/kg/injection, schedule: Q01DX009 (ip), vehicle: saline with Tween-80.
The mark [9] stands for this setting: dose: 200.0 mg/kg/injection, schedule: Q01DX009 (ip), vehicle: saline with Tween-80.
Where [10] appears, read: dose: 60.0 mg/kg/injection, schedule: Q01DX005 (ip), vehicle: saline with Tween-80.
[11] abbreviates: dose: 120.0 mg/kg/injection, schedule: Q01DX005 (ip), vehicle: saline with Tween-80.
The mark [12] stands for this setting: dose: 240.0 mg/kg/injection, schedule: Q01DX005 (ip), vehicle: saline with Tween-80.
[13] abbreviates: dose: 50.0 mg/kg/injection, schedule: Q01DX005 (ip), vehicle: Klucel (hydroxypropylcellulose) (HPC).
Setting [14] is: dose: 100.0 mg/kg/injection, schedule: Q01DX005 (ip), vehicle: Klucel (hydroxypropylcellulose) (HPC).
Setting [15] is: dose: 200.0 mg/kg/injection, schedule: Q01DX005 (ip), vehicle: Klucel (hydroxypropylcellulose) (HPC).
The mark [16] stands for this setting: dose: 100.0 mg/kg/injection, schedule: Q01DX001 (ip), vehicle: saline with Tween-80.
Where [17] appears, read: dose: 200.0 mg/kg/injection, schedule: Q01DX001 (ip), vehicle: saline with Tween-80.
[18] abbreviates: dose: 400.0 mg/kg/injection, schedule: Q01DX001 (ip), vehicle: saline with Tween-80.

We go through 24 compounds from PubChem BioAssay AID330 (DTP/NCI, 2004).

Several values for one entry are separate records, joined by “and”; a condition that tells them apart may be missing. Equal entries are not always repeated. Inconclusive results and toxic doses are left out.

On to `CSc1nnc2nc3c4ccccc4c4ccccc4c3nn12`, for which the T/C (dose: 50.0 mg/kg/injection, schedule: Q04DX002 (ip), vehicle: suspension in saline) was 100 % of control; the T/C under setting [1] is 100 % of control; the T/C under setting [2] is 98 % of control.
Turning to `N#C/C(=N\NC(=O)c1cccs1)c1ccccc1Cl`, the T/C runs as follows: (dose: 50.0 mg/kg/injection, schedule: Q01DX005 (ip), vehicle: saline with Tween-80) 93 % of control; (dose: 100.0 mg/kg/injection, schedule: Q01DX005 (ip), vehicle: saline with Tween-80) 103 % of control; (dose: 200.0 mg/kg/injection, schedule: Q01DX005 (ip), vehicle: saline with Tween-80) 106 % of control.
In the case of `COCCCOC(=O)NCCCCC([NH-])C(=O)O.COCCCOC(=O)NCCCCC([NH-])C(=O)O.[Cu+2]` (configuration not stated), the T/C (dose: 6.25 mg/kg/injection, schedule: Q01DX005 (ip), vehicle: Klucel (hydroxypropylcellulose) (HPC)) was 100 % of control; the T/C (dose: 12.5 mg/kg/injection, schedule: Q01DX005 (ip), vehicle: Klucel (hydroxypropylcellulose) (HPC)) was 87 % of control; the T/C (dose: 25.0 mg/kg/injection, schedule: Q01DX005 (ip), vehicle: Klucel (hydroxypropylcellulose) (HPC)) is 89 % of control.
As for `O=c1c2[nH]c3ccccc3sc=2c(=O)n1-c1ccc(Cl)c(Cl)c1Cl`, the T/C runs as follows: (dose: 100.0 mg/kg/injection, schedule: Q04DX002 (ip), vehicle: saline with Tween-80) 100 % of control; (dose: 200.0 mg/kg/injection, schedule: Q04DX002 (ip), vehicle: saline with Tween-80) 97 % of control; (dose: 400.0 mg/kg/injection, schedule: Q04DX002 (ip), vehicle: saline with Tween-80) 100 % of control.
On to `O=C(O)C(O)(c1ccccc1)C1CCCC1` (configuration not stated), for which the T/C was 109 % of control under setting [3] and 107 % of control under setting [4].
In the case of `c1ccc2c(c1)[nH]c1c2nc2sccn21`, the T/C reads like this: (dose: 60.0 mg/kg/injection, schedule: Q01DX005 (ip), vehicle: Klucel (hydroxypropylcellulose) (HPC)) 115 % of control; (dose: 120.0 mg/kg/injection, schedule: Q01DX005 (ip), vehicle: Klucel (hydroxypropylcellulose) (HPC)) 115 % of control; (dose: 240.0 mg/kg/injection, schedule: Q01DX005 (ip), vehicle: Klucel (hydroxypropylcellulose) (HPC)) 116 % of control.
`O=C1CC2(CCCCC2)C(=O)N1c1ccc(S(=O)(=O)NC(=S)Nc2ccc(Br)cc2)cc1`: the T/C is 98 % of control under setting [5], 95 % of control under setting [6] and 104 % of control under setting [7].
For the compound `Cc1c2cc[n+]([O-])cc2c(C)c2c1oc1ccccc12`, the T/C reads like this: under setting [8], 115 % of control; under setting [3], 154 % of control; under setting [9], 165 % of control and 173 % of control.
For the compound `COC(=O)c1cc2nc(C(C)C)n(Cc3ccccc3)c2cc1C(=O)OC`, the T/C by setting is: under setting [10], 92 % of control; under setting [11], 92 % of control; under setting [12], 90 % of control.
Turning to `C[C@]12CCC(=O)C=C1CC[C@@H]1[C@@H]2[C@@H](O)C[C@@]2(C)[C@H]1CC[C@]2(O)C(=O)CF`, the T/C by setting is: under setting [3], 100 % of control; (dose: 100.0 mg/kg/injection, schedule: Q04DX003 (ip), vehicle: saline with Tween-80) 109 % of control; under setting [9], 100 % of control; (dose: 200.0 mg/kg/injection, schedule: Q04DX003 (ip), vehicle: saline with Tween-80) 109 % of control; under setting [4], 100 % of control; (dose: 400.0 mg/kg/injection, schedule: Q04DX003 (ip), vehicle: saline with Tween-80) 109 % of control.
Take `COc1cc(Br)c(CC(NC=O)c2ccc(OC)c(OC)c2OC)cc1OC` (configuration not stated): the T/C was 107 % of control under setting [10], 100 % of control under setting [11] and 100 % of control under setting [12].
As to `CC(=O)OC1=CC(=O)N(C(=O)c2ccc(Cl)cc2)C1`, the T/C under setting [5] is 109 % of control, the T/C under setting [6] is 115 % of control and the T/C under setting [7] is 115 % of control.
For the compound `CN(C)c1ccc2c(SCC(=O)Nc3ccc(NS(C)(=O)=O)cc3)c3ccc(N(C)C)cc3nc2c1`, the T/C under setting [13] was 115 % of control, the T/C under setting [14] was 117 % of control and the T/C under setting [15] was 114 % of control.
In the case of `CCOC(=O)c1ccc2[nH]c(-c3ccc(S(=O)(=O)F)cc3)cc(=O)c2c1`, the T/C by setting is: (dose: 12.5 mg/kg/injection, schedule: Q01DX009 (ip), vehicle: saline with Tween-80) 87 % of control; under setting [8], 93 % of control; (dose: 50.0 mg/kg/injection, schedule: Q01DX009 (ip), vehicle: saline with Tween-80) 96 % of control; under setting [3], 93 % of control.
`COP(=O)(OC)O[Si](C)(C)CC[Si](C)(C)Cl`: the T/C reads like this: under setting [13], 105 % of control; under setting [14], 105 % of control; under setting [15], 99 % of control.
Turning to `CCC(C(=O)c1ccccc1)C1(C(=O)OC)NC(=S)NC(=O)C1C#N` (configuration not stated), the T/C was 95 % of control (dose: 60.0 mg/kg/injection, schedule: Q01DX005 (ip), vehicle: saline); 95 % of control (dose: 120.0 mg/kg/injection, schedule: Q01DX005 (ip), vehicle: saline); 100 % of control (dose: 240.0 mg/kg/injection, schedule: Q01DX005 (ip), vehicle: saline).
For the compound `CCC1C(OC)=CC2(CC)CC1(OC)OC2=O` (configuration not stated), the T/C was 97 % of control under setting [10], 98 % of control under setting [11] and 102 % of control under setting [12].
Turning to `CC1(C)OCC2OCOC(C3CC(=O)NC(=O)C3)C2O1` (configuration not stated), the T/C by setting is: under setting [1], 102 % of control; under setting [2], 100 % of control; (dose: 400.0 mg/kg/injection, schedule: Q04DX002 (ip), vehicle: suspension in saline) 102 % of control.
In the case of `COC(=O)NCP(=O)(CNC(=O)OC)CNC(=O)OC`, the T/C is 100 % of control under setting [5], 98 % of control under setting [6] and 100 % of control under setting [7].
Regarding `CCc1ccc[n+](-c2nc3c([O-])n(C)c(=O)n(C)c-3n2)c1`, the T/C (dose: 100.0 mg/kg/injection, schedule: Q04DX003 (ip), vehicle: saline) is 91 % of control; the T/C (dose: 200.0 mg/kg/injection, schedule: Q04DX003 (ip), vehicle: saline) was 100 % of control; the T/C (dose: 400.0 mg/kg/injection, schedule: Q04DX003 (ip), vehicle: saline) was 94 % of control.
In the case of `O=C(CNO)OCc1ccccc1`, the T/C was 97 % of control (dose: 25.0 mg/kg/injection, schedule: Q01DX009 (ip), vehicle: other); 106 % of control (dose: 50.0 mg/kg/injection, schedule: Q01DX009 (ip), vehicle: other); 104 % of control (dose: 100.0 mg/kg/injection, schedule: Q01DX009 (ip), vehicle: other); 100 % of control (dose: 200.0 mg/kg/injection, schedule: Q01DX009 (ip), vehicle: other); 106 % of control (dose: 400.0 mg/kg/injection, schedule: Q01DX009 (ip), vehicle: other).
Regarding `CS(=O)(=O)Nc1ccc(Oc2c3ccccc3nc3ccccc23)cc1`, the T/C under setting [16] is 91 % of control, the T/C under setting [17] is 92 % of control and the T/C under setting [18] was 90 % of control.
Take `O=c1c2ccccc2nc(CN(CCCl)CCCl)n1-c1ccc(O)c(CN(CCCl)CCCl)c1`: the T/C under setting [16] is 151 % of control, the T/C under setting [17] was 155 % of control and the T/C under setting [18] was 270 % of control.
Take `O=c1c2ccccc2nc(-c2cccc([N+](=O)[O-])c2)n1O`: the T/C by setting is: under setting [10], 89 % of control; under setting [11], 100 % of control; under setting [12], 91 % of control.
